Experimental data from ChEMBL document CHEMBL4651402, “Screening of ~5500 FDA-approved drugs and clinical candidates for anti-SARS-CoV-2 activity” (2021).

System: SARS-CoV-2
Test: microbe, parasite or virus in culture
Details: Severe acute respiratory syndrome coronavirus 2, Vero C1008, 48 h

SMILES	IC50 [µM]	IC50 (read-out: pIC50 (converted)) [µM]
Oc1ccc(C(O)CNCCCCCCNCC(O)c2ccc(O)c(O)c2)cc1O (configuration not stated) [HEXOPRENALINE]	> 20	> 20
CC(CNC1CCCCC1)OC(=O)c1ccccc1 (configuration not stated) [HEXYLCAINE]	> 20	> 20
CC(O)CC(C)(C)O (configuration not stated) [HEXYLENE GLYCOL]	> 20	> 20
CCCCCCc1ccc(O)cc1O [HEXYLRESORCINOL]	> 20	> 20
O=C(O)CNC(=O)c1ccccc1 [HIPPURIC ACID]	> 20	> 20
NCCc1c[nH]cn1 [HISTAMINE]	> 20	> 20
COc1ccc(S(=O)(=O)N(C(C)=O)c2ccccc2/C=C/c2cc[n+]([O-])cc2)cc1 [HMN-214]	> 20	> 20
CC[n+]1c(-c2ccccc2)c2cc(N)ccc2c2ccc(N)cc21 [HOMIDIUM]	> 20	> 20
CC1CC(OC(=O)c2ccccc2O)CC(C)(C)C1 (configuration not stated) [HOMOSALATE]	> 20	> 20
CN(C)CCc1ccc(O)cc1 [HORDENINE]	> 20	> 20
C/C=C1\[C@H]2C=C(C)C[C@]1(N)c1ccc(=O)[nH]c1C2 [HUPERZINE A]	> 20	> 20
CCN(CC)CCNc1ccc(CO)c2sc3ccccc3c(=O)c12 [HYCANTHONE]	> 20	> 20
COc1ccc2c(c1OC)C(=O)O[C@@H]2[C@H]1c2cc3c(cc2CCN1C)OCO3 [HYDRASTINE]	> 20	> 20
CN1CCc2cc3c(cc2C1O)OCO3 (configuration not stated) [HYDRASTININE]	> 20	> 20
NS(=O)(=O)c1cc2c(cc1Cl)NCNS2(=O)=O [HYDROCHLOROTHIAZIDE]	> 20	> 20
COc1ccc2c3c1O[C@H]1C(=O)CC[C@H]4[C@@H](C2)N(C)CC[C@]314 [HYDROCODONE]	> 20	> 20
CC(=O)OCC(=O)[C@@]1(O)CC[C@H]2[C@@H]3CCC4=CC(=O)CC[C@]4(C)[C@H]3[C@@H](O)C[C@@]21C [HYDROCORTISONE ACETATE]	> 20	> 20
C[C@]12CCC(=O)C=C1CC[C@@H]1[C@@H]2[C@@H](O)C[C@@]2(C)[C@H]1CC[C@]2(O)C(=O)CO [HYDROCORTISONE]	> 20	> 20
COc1c2c(cc3c1OCO3)CCN(C)C2 [HYDROCOTARNINE]	> 20	> 20
NS(=O)(=O)c1cc2c(cc1C(F)(F)F)NCNS2(=O)=O [HYDROFLUMETHIAZIDE]	> 20	> 20
Oc1ccc(O)cc1 [HYDROQUINONE]	> 20	> 20
CC(N)Cc1ccc(O)cc1 (configuration not stated) [HYDROXYAMPHETAMINE]	> 20	> 20
C[C@]12CCC(=O)C[C@H]1CC[C@@H]1[C@@H]2CC[C@]2(C)[C@@H](C(=O)COC(=O)CCC(=O)O)CC[C@@H]12 [HYDROXYDIONE SUCCINIC ACID]	> 20	> 20
CC(C)(O)C(=O)Nc1ccc([N+](=O)[O-])c(C(F)(F)F)c1 [HYDROXYFLUTAMIDE]	> 20	> 20
CCC(O)(COC(N)=O)c1ccccc1 (configuration not stated) [HYDROXYPHENAMATE]	> 20	> 20
CC(=O)[C@@]1(O)CC[C@H]2[C@@H]3CCC4=CC(=O)CC[C@]4(C)[C@H]3CC[C@@]21C [HYDROXYPROGESTERONE]	> 20	> 20

SMILES	IC50 [µM]	IC50 (read-out: pIC50 (converted)) [µM]
NC(=O)NO [HYDROXYUREA]	> 20	> 20
OCCOCCN1CCN(C(c2ccccc2)c2ccc(Cl)cc2)CC1 (configuration not stated) [HYDROXYZINE]	> 20	> 20
Cc1cc(=O)oc2cc(O)ccc12 [HYMECROMONE]	> 20	> 20
O=c1[nH]cnc2nc[nH]c12 [HYPOXANTHINE]	> 20	> 20
CNC(=O)[C@H]1O[C@@H](n2cnc3c(NCc4cccc(I)c4)ncnc32)[C@H](O)[C@@H]1O [IB-MECA]	> 20	> 20
Nc1nc(=O)n([C@H]2C[C@H](O)[C@@H](CO)O2)cc1I [IBACITABINE]	> 20	> 20
O=C1CC[C@H](N2Cc3c(OCc4ccc(CN5CCOCC5)cc4)cccc3C2=O)C(=O)N1 [IBERDOMIDE]	> 20	> 20
CNCCc1ccc(OC(=O)C(C)C)c(OC(=O)C(C)C)c1 [IBOPAMINE]	> 20	> 20
CCOP(=O)(Cc1ccc(C(=O)Nc2ccc(Br)cc2C#N)cc1)OCC [IBROLIPIM]	> 20	> 20
CC(C)C(=O)c1c(C(C)C)nn2ccccc12 [IBUDILAST]	> 20	> 20
CC(C)Cc1ccc(CC(=O)O)cc1 [IBUFENAC]	> 20	> 20
CC(C)Cc1ccc(C(C)C(=O)O)cc1 (configuration not stated) [IBUPROFEN]	> 20	> 20
CC(C)(N)C(=O)N[C@H](COCc1ccccc1)C(=O)N1CCC2(CC1)CN(S(C)(=O)=O)c1ccccc12 [IBUTAMOREN]	> 20	> 20
CCCCCCCN(CC)CCCC(O)c1ccc(NS(C)(=O)=O)cc1 (configuration not stated) [IBUTILIDE]	> 20	> 20
C#Cc1cccc(Nc2ncnc3cc4c(cc23)OCCOCCOCCO4)c1 [ICOTINIB]	> 20	> 20
COc1cc(C(=O)O)ccc1NC(=O)[C@@H]1N[C@@H](CC(C)(C)C)[C@](C#N)(c2ccc(Cl)cc2F)[C@H]1c1cccc(Cl)c1F [IDASANUTLIN]	> 20	> 20
c1ccc2c(c1)OCC(C1=NCCN1)O2 (configuration not stated) [IDAZOXAN]	> 20	> 20
COC1=C(OC)C(=O)C(CCCCCCCCCCO)=C(C)C1=O [IDEBENONE]	> 20	> 20
CC[C@H](Nc1ncnc2[nH]cnc12)c1nc2cccc(F)c2c(=O)n1-c1ccccc1 [IDELALISIB]	> 20	> 20
O=C1C2CC3CC1CC(O)(C3)C2 [IDRAMANTONE]	> 20	> 20
CC[C@H]1OC(=O)[C@H](C)[C@@H](O[C@H]2C[C@@](C)(OC)[C@@H](O)[C@H](C)O2)[C@H](C)[C@@H](O[C@@H]2O[C@H](C)C[C@H](N(C)C(C)C)[C@H]2O)[C@@]2(C)CC(C)=C(O2)[C@H](C)[C@@H](O)[C@]1(C)O [IDREMCINAL]	> 20	> 20
CC(C(O)c1ccc(O)cc1)N1CCC(Cc2ccccc2)CC1 (configuration not stated) [IFENPRODIL]	> 20	> 20
O=P1(NCCCl)OCCCN1CCCl (configuration not stated) [IFOSFAMIDE]	> 20	> 20
CCC(C/C=C/c1ccccc1)(c1ccccc1)N(C)CC1CC1 (configuration not stated) [IGMESINE]	> 20	> 20
CS(=O)(=O)Nc1cc2occ(NC=O)c(=O)c2cc1Oc1ccccc1 [IGURATIMOD]	> 20	> 20
COc1ccnc(C[S+]([O-])c2nc3cc(-n4cccc4)ccc3[nH]2)c1C (configuration not stated) [ILAPRAZOLE]	> 20	> 20

SMILES	IC50 [µM]	IC50 (read-out: pIC50 (converted)) [µM]
O=C(/C=C/c1ccc2c(c1)OCO2)N1CCCCC1 [ILEPCIMIDE]	> 20	> 20
COc1cc(C(C)=O)ccc1OCCCN1CCC(c2noc3cc(F)ccc23)CC1 [ILOPERIDONE]	> 20	> 20
c1ccc(C2CN=C3NCCN32)cc1 (configuration not stated) [IMAFEN]	> 20	> 20
O=C1CCC(c2ccc(-n3ccnc3)cc2)=NN1 [IMAZODAN]	> 20	> 20
N=C1NC(=O)N2CC12 (configuration not stated) [IMEXON]	> 20	> 20
O=[N+]([O-])/N=C1\NCCN1Cc1ccc(Cl)nc1 [IMIDACLOPRID]	> 20	> 20
O=C(O)Cc1c[nH]cn1 [IMIDAZOLE ACETIC ACID]	> 20	> 20
O=C(Nc1cccc(C2=NCCN2)c1)Nc1cccc(C2=NCCN2)c1 [IMIDOCARB]	> 20	> 20
CCn1ccnc1CC1COc2ccccc2O1 (configuration not stated) [IMILOXAN]	> 20	> 20
C[C@@H](O)[C@H]1C(=O)N2C(C(=O)O)=C(SCCNC=N)C[C@H]12 [IMIPENEM ANHYDROUS]	> 20	> 20
CN(C)CCCN1c2ccccc2CCc2ccccc21 [IMIPRAMINE]	> 20	> 20
CC(C)Cn1cnc2c(N)nc3ccccc3c21 [IMIQUIMOD]	> 20	> 20
Nc1cc(-c2ccncc2)c[nH]c1=O [INAMRINONE]	> 20	> 20
CO[C@@H]1[C@H](OP(=O)(OC[C@H]2O[C@@H](n3cnc4c(N)ncnc43)C[C@@H]2O)SCOC(=O)OC(C)C)[C@@H](CO)O[C@H]1n1ccc(=O)[nH]c1=O (some centres not stated) [INARIGIVIR SOPROXIL]	> 20	> 20
CC1(c2ccccc2)Cc2cc(OCC(=O)O)c(Cl)c(Cl)c2C1=O (configuration not stated) [INDACRINONE]	> 20	> 20
c1ccc2c(CCC3CCNCC3)c[nH]c2c1 [INDALPINE]	> 20	> 20
CC1Cc2ccccc2N1NC(=O)c1ccc(Cl)c(S(N)(=O)=O)c1 (configuration not stated) [INDAPAMIDE]	> 20	> 20
c1ccc2[nH]ncc2c1 [INDAZOLE]	> 20	> 20
CC(C)NCCCC1(C(N)=O)c2ccccc2-c2ccccc21 [INDECAINIDE]	> 20	> 20
O=C1Nc2ccccc2/C1=C1/Nc2ccccc2C1=O [INDIRUBIN]	> 20	> 20
CC1(C)C(=O)Nc2ccc(C3=NNC(=O)CC3)cc21 [INDOLIDAN]	> 20	> 20
O=C(O)CCc1c[nH]c2ccccc12 [INDOLYLPROPIONIC ACID]	> 20	> 20
CC(C(=O)O)c1ccc(N2Cc3ccccc3C2=O)cc1 (configuration not stated) [INDOPROFEN]	> 20	> 20
O=C(NC1CCN(CCc2c[nH]c3ccccc23)CC1)c1ccccc1 [INDORAMIN]	> 20	> 20
